{"source": "PubChem BioAssay AID1963428", "about": "(Molecular Pharmacology Branch, DTP, NCI, 2024)", "tested_on": "171881-019-R-J1-PDC complex spheroid growth, % test/control", "assay": "Anticancer human tumor 171881-019-R-J1-PDC patient-derived invasive breast carcinoma cell line growth inhibition [Asc]", "settings": "for viability, T/C: stronger effect = lower value", "how_it_was_run": "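Complex solid-tumor spheroids incorporating human endothelial and mesenchymal stem cells received single agents or combinations over half-log dilution ranges anchored to clinical Cmax.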", "key": {"[1]": {"settings": "curve of first compound, second compound 0.1 µM"}, "[2]": {"settings": "curve of first compound, second compound 0.316 µM"}, "[3]": {"settings": "curve of first compound, second compound 1 µM"}}, "note": "“And” between values parts separate entries of the source, which are not always exact repeats. Identical values can stand only once.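 Throughout, for viability, T/C: spheroids exposed to compounds for 7 days.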"}
{"smiles": "NC(=O)C(=Cn1cnc(-c2cc(C(F)(F)F)cc(C(F)(F)F)c2)n1)c1cncnc1", "note": "+ CNC(C)C(=O)NC1CN(S(=O)(=O)c2cccc(S(=O)(=O)N3CCC4CCC(C(=O)NC(c5ccccc5)c5ccccc5)N4C(=O)C(NC(=O)C(C)NC)C3)c2)CCC2CCC(C(=O)NC(c3ccccc3)c3ccccc3)N2C1=O", "values": [{"measurement": "IC50", "setting": "curve of first compound, second compound 0.01 µM", "value": 63, "unit": "nM"}, {"measurement": "IC50", "setting": "curve of first compound, second compound 0.0316 µM", "value": 66.3, "unit": "nM"}, {"measurement": "IC50", "setting": "[1]", "value": 61.9, "unit": "nM"}, {"measurement": "IC50", "setting": "[2]", "value": 58.6, "unit": "nM"}, {"measurement": "IC50", "setting": "[3]", "value": 61.6, "unit": "nM"}, {"measurement": "viability, T/C", "setting": "second compound 0.01 µM, first compound 0.000949 µM", "value": 118, "unit": "%"}, {"measurement": "viability, T/C", "setting": "second compound 0.01 µM, first compound 0.003 µM", "value": 101, "unit": "%"}, {"measurement": "viability, T/C", "setting": "second compound 0.01 µM, first compound 0.00949 µM", "value": 139, "unit": "%"}, {"measurement": "viability, T/C", "setting": "second compound 0.01 µM, first compound 0.03 µM", "value": 109, "unit": "%"}, {"measurement": "viability, T/C", "setting": "second compound 0.01 µM, first compound 0.0949 µM", "value": 17.5, "unit": "%"}, {"measurement": "viability, T/C", "setting": "second compound 0.01 µM, first compound 0.3 µM", "value": 5.02, "unit": "%"}, {"measurement": "viability, T/C", "setting": "second compound 0.0316 µM, first compound 0.000949 µM", "value": 109, "unit": "%"}, {"measurement": "viability, T/C", "setting": "second compound 0.0316 µM, first compound 0.003 µM", "value": 111, "unit": "%"}, {"measurement": "viability, T/C", "setting": "second compound 0.0316 µM, first compound 0.00949 µM", "value": 149, "unit": "%"}, {"measurement": "viability, T/C", "setting": "second compound 0.0316 µM, first compound 0.03 µM", "value": 104, "unit": "%"}, {"measurement": "viability, T/C", "setting": "second compound 0.0316 µM, first compound 0.0949 µM", "value": 17.8, "unit": "%"}, {"measurement": "viability, T/C", "setting": "second compound 0.0316 µM, first compound 0.3 µM", "value": 5.09, "unit": "%"}, {"measurement": "viability, T/C", "setting": "second compound 0.1 µM, first compound 0.000949 µM", "value": 97.9, "unit": "%"}, {"measurement": "viability, T/C", "setting": "second compound 0.1 µM, first compound 0.003 µM", "value": 109, "unit": "%"}, {"measurement": "viability, T/C", "setting": "second compound 0.1 µM, first compound 0.00949 µM", "value": 145, "unit": "%"}, {"measurement": "viability, T/C", "setting": "second compound 0.1 µM, first compound 0.03 µM", "value": 111, "unit": "%"}, {"measurement": "viability, T/C", "setting": "second compound 0.1 µM, first compound 0.0949 µM", "value": 14.1, "unit": "%"}, {"measurement": "viability, T/C", "setting": "second compound 0.1 µM, first compound 0.3 µM", "value": 4.5, "unit": "%"}, {"measurement": "viability, T/C", "setting": "second compound 0.316 µM, first compound 0.000949 µM", "value": 118, "unit": "%"}, {"measurement": "viability, T/C", "setting": "second compound 0.316 µM, first compound 0.003 µM", "value": 108, "unit": "%"}, {"measurement": "viability, T/C", "setting": "second compound 0.316 µM, first compound 0.00949 µM", "value": 149, "unit": "%"}, {"measurement": "viability, T/C", "setting": "second compound 0.316 µM, first compound 0.03 µM", "value": 98.7, "unit": "%"}, {"measurement": "viability, T/C", "setting": "second compound 0.316 µM, first compound 0.0949 µM", "value": 15.8, "unit": "%"}, {"measurement": "viability, T/C", "setting": "second compound 0.316 µM, first compound 0.3 µM", "value": 4.13, "unit": "%"}, {"measurement": "viability, T/C", "setting": "second compound 1 µM, first compound 0.000949 µM", "value": 110, "unit": "%"}, {"measurement": "viability, T/C", "setting": "second compound 1 µM, first compound 0.003 µM", "value": 108, "unit": "%"}, {"measurement": "viability, T/C", "setting": "second compound 1 µM, first compound 0.00949 µM", "value": 166, "unit": "%"}, {"measurement": "viability, T/C", "setting": "second compound 1 µM, first compound 0.03 µM", "value": 108, "unit": "%"}, {"measurement": "viability, T/C", "setting": "second compound 1 µM, first compound 0.0949 µM", "value": 15.6, "unit": "%"}, {"measurement": "viability, T/C", "setting": "second compound 1 µM, first compound 0.3 µM", "value": 3.79, "unit": "%"}]}
{"smiles": "CNC(C)C(=O)NC1CN(S(=O)(=O)c2cccc(S(=O)(=O)N3CCC4CCC(C(=O)NC(c5ccccc5)c5ccccc5)N4C(=O)C(NC(=O)C(C)NC)C3)c2)CCC2CCC(C(=O)NC(c3ccccc3)c3ccccc3)N2C1=O", "note": "(centres undefined)", "values": [{"measurement": "viability, T/C", "setting": "compound 0.00316 µM", "value": "102% and 97.8%"}, {"measurement": "viability, T/C", "setting": "compound 0.1 µM", "value": "95.1% [middle of 15 runs]"}, {"measurement": "IC50", "setting": "compound alone, run of 10/03/2022", "value": "> 1000", "unit": "nM"}, {"measurement": "IC50", "setting": "curve of compound", "value": "> 1000", "unit": "nM"}]}
{"smiles": "NC1CCC(NC2CC2c2ccccc2)CC1", "note": "(centres undefined) + Cc1c(S(C)(=O)=O)c(-c2cc(F)cc(N3CCN(c4ccc(NS(=O)(=O)c5ccc(NC(CCN6CCC(C(=O)OCCCP(=O)(O)O)CC6)CSc6ccccc6)c(S(=O)(=O)C(F)(F)F)c5)cc4)CC3)c2)c(-c2ccc(Cl)cc2)n1C(C)C", "values": [{"measurement": "IC50", "setting": "[1]", "value": "> 100", "unit": "nM"}, {"measurement": "IC50", "setting": "[2]", "value": "> 100", "unit": "nM"}, {"measurement": "IC50", "setting": "[3]", "value": "> 100", "unit": "nM"}, {"measurement": "IC50", "setting": "curve of first compound, second compound 3.16 µM", "value": "> 100", "unit": "nM"}, {"measurement": "IC50", "setting": "curve of first compound, second compound 10 µM", "value": "> 100", "unit": "nM"}, {"measurement": "viability, T/C", "setting": "second compound 0.1 µM, first compound 0.000316 µM", "value": 85.6, "unit": "%"}, {"measurement": "viability, T/C", "setting": "second compound 0.1 µM, first compound 0.001 µM", "value": 83, "unit": "%"}, {"measurement": "viability, T/C", "setting": "second compound 0.1 µM, first compound 0.00316 µM", "value": 85.6, "unit": "%"}, {"measurement": "viability, T/C", "setting": "second compound 0.1 µM, first compound 0.01 µM", "value": 81, "unit": "%"}, {"measurement": "viability, T/C", "setting": "second compound 0.1 µM, first compound 0.0316 µM", "value": 88.7, "unit": "%"}, {"measurement": "viability, T/C", "setting": "second compound 0.1 µM, first compound 0.1 µM", "value": 91.8, "unit": "%"}, {"measurement": "viability, T/C", "setting": "second compound 0.316 µM, first compound 0.000316 µM", "value": 99.9, "unit": "%"}, {"measurement": "viability, T/C", "setting": "second compound 0.316 µM, first compound 0.001 µM", "value": 107, "unit": "%"}, {"measurement": "viability, T/C", "setting": "second compound 0.316 µM, first compound 0.00316 µM", "value": 90.5, "unit": "%"}, {"measurement": "viability, T/C", "setting": "second compound 0.316 µM, first compound 0.01 µM", "value": 88.2, "unit": "%"}, {"measurement": "viability, T/C", "setting": "second compound 0.316 µM, first compound 0.0316 µM", "value": 96, "unit": "%"}, {"measurement": "viability, T/C", "setting": "second compound 0.316 µM, first compound 0.1 µM", "value": 84.1, "unit": "%"}, {"measurement": "viability, T/C", "setting": "second compound 1 µM, first compound 0.000316 µM", "value": 97.6, "unit": "%"}, {"measurement": "viability, T/C", "setting": "second compound 1 µM, first compound 0.001 µM", "value": 101, "unit": "%"}, {"measurement": "viability, T/C", "setting": "second compound 1 µM, first compound 0.00316 µM", "value": 91.5, "unit": "%"}, {"measurement": "viability, T/C", "setting": "second compound 1 µM, first compound 0.01 µM", "value": 82.6, "unit": "%"}, {"measurement": "viability, T/C", "setting": "second compound 1 µM, first compound 0.0316 µM", "value": 84, "unit": "%"}, {"measurement": "viability, T/C", "setting": "second compound 1 µM, first compound 0.1 µM", "value": 92.4, "unit": "%"}, {"measurement": "viability, T/C", "setting": "second compound 3.16 µM, first compound 0.000316 µM", "value": 134, "unit": "%"}, {"measurement": "viability, T/C", "setting": "second compound 3.16 µM, first compound 0.001 µM", "value": 99.3, "unit": "%"}, {"measurement": "viability, T/C", "setting": "second compound 3.16 µM, first compound 0.00316 µM", "value": 93, "unit": "%"}, {"measurement": "viability, T/C", "setting": "second compound 3.16 µM, first compound 0.01 µM", "value": 88.3, "unit": "%"}, {"measurement": "viability, T/C", "setting": "second compound 3.16 µM, first compound 0.0316 µM", "value": 88.1, "unit": "%"}, {"measurement": "viability, T/C", "setting": "second compound 3.16 µM, first compound 0.1 µM", "value": 104, "unit": "%"}, {"measurement": "viability, T/C", "setting": "second compound 10 µM, first compound 0.000316 µM", "value": 154, "unit": "%"}, {"measurement": "viability, T/C", "setting": "second compound 10 µM, first compound 0.001 µM", "value": 127, "unit": "%"}, {"measurement": "viability, T/C", "setting": "second compound 10 µM, first compound 0.00316 µM", "value": 111, "unit": "%"}, {"measurement": "viability, T/C", "setting": "second compound 10 µM, first compound 0.01 µM", "value": 115, "unit": "%"}, {"measurement": "viability, T/C", "setting": "second compound 10 µM, first compound 0.0316 µM", "value": 121, "unit": "%"}, {"measurement": "viability, T/C", "setting": "second compound 10 µM, first compound 0.1 µM", "value": 92.3, "unit": "%"}]}
